Reference: patent US6107318A, “Naphthothiazolone derivatives active on the D3 dopaminergic receptor” (Zambon Group S.p.A., priority 1997, dated 2000)
Counter-ions that a name gives are not always drawn.

Columns and labels:
[1] = target: T1, D3 (Homo sapiens, UniProt P35462); experiment: Binding to dopaminergic receptors in cell cultures, displacement of [3H]-spiperone, D3; details: CHO or NM9D cell membranes; [3H]-spiperone 0.3 nM; non specific (+)-butaclamol 1 μM; Cheng and Prusoff; read-out: Receptor binding (Ki nM) D3
T1 construct: expressed in transfected cells; host or cells: CHO or murine mesencephalic neuronal NM9D (sic)
T1 sequence (P35462 whole entry): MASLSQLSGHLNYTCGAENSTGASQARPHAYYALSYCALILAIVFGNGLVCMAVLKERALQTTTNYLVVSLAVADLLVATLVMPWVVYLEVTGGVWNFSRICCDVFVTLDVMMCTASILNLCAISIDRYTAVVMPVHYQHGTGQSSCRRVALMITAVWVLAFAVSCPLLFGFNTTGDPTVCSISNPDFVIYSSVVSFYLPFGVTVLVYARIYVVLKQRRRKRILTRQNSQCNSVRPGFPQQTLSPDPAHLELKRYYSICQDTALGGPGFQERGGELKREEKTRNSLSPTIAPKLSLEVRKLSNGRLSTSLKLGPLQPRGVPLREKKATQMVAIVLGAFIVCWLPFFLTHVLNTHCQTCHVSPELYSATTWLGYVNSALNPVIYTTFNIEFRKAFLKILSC
Protocol: (§1) Test for evaluating the bindings to dopaminergic receptors in cell cultures
(§2) Chinese hamster ovary cells (CHO) transfected with dopaminergic receptor subtypes and murine mesencephalic neuronal (NM9D) expressing the different subtypes of such receptors were used. The cell lines were grown on Petri dishes, in a mixture of DMEM and Ham's F12 medium 1:1 supplemented with 10% foetal bovine serum (FBS), penicillin, streptomycin, geneticin (500 μg/ml) and glutamin in a humidified 5% CO2 atmosphere at 37° C. When cells reached confluence they were washed with 10 ml of PBS (KCl 2.68 mM, KH2 PO4 1.4 mM, NaCl […] and Na2 HPO4 6.4 mM) then 5 ml of lysis buffer (Tris-HCl 10 mM and EDTA 5 mM) were added to each Petri. Cells were scrapped and the solution centrifuged for 20 minutes at 48,000 gravity, 4° C. The pellet was suspended in a minimal amount of lysis buffer and homogenised for 15 seconds. […] Saturation curves were analysed using Ligand® program to have Kd (dissociation constant) and Bmax (number of receptors/mg of protein) (Munson and Rodbar, 1980Anal. Biochem., 107, 220-239). […]
(§3) The compounds of the invention were tested at increasing concentrations for evaluating their binding to the various receptors, expressed as Ki (affinity constant) obtained through the Cheng and Prusoff equation

[2] = target: T2, D2s (Homo sapiens, UniProt P14416); experiment: Binding to dopaminergic receptors in cell cultures, displacement of [3H]-spiperone, D2s; details: CHO or NM9D cell membranes; [3H]-spiperone 0.1 nM; non specific (+)-butaclamol 1 μM; Cheng and Prusoff; read-out: Receptor binding (Ki nM) D2s
T2 construct: expressed in transfected cells; host or cells: CHO or murine mesencephalic neuronal NM9D (sic)
T2 sequence (P14416 1-414 isoform P14416-2): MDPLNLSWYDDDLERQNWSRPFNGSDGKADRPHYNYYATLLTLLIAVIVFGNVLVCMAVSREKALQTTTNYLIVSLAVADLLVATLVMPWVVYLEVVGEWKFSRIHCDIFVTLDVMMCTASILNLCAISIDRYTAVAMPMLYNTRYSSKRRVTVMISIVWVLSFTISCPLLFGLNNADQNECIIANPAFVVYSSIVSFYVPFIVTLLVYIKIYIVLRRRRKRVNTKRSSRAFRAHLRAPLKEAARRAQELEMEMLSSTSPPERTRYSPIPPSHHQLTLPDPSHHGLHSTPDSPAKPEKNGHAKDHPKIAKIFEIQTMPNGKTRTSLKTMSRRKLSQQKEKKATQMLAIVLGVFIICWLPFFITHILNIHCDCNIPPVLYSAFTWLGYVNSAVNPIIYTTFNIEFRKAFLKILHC
Protocol: as §1, §2, §3

[3] = target: T3, D1 (Homo sapiens, UniProt P21728); experiment: Binding to dopaminergic receptors in cell cultures, displacement of [3H]-SCH23390, D1; details: CHO or NM9D cell membranes; [3H]-SCH23390 0.2 nM; non specific (-)cis-flupenthixol 1 μM; Cheng and Prusoff; read-out: Receptor binding (Ki nM) D1
T3 construct: expressed in transfected cells; host or cells: CHO or murine mesencephalic neuronal NM9D (sic)
T3 sequence (P21728 whole entry): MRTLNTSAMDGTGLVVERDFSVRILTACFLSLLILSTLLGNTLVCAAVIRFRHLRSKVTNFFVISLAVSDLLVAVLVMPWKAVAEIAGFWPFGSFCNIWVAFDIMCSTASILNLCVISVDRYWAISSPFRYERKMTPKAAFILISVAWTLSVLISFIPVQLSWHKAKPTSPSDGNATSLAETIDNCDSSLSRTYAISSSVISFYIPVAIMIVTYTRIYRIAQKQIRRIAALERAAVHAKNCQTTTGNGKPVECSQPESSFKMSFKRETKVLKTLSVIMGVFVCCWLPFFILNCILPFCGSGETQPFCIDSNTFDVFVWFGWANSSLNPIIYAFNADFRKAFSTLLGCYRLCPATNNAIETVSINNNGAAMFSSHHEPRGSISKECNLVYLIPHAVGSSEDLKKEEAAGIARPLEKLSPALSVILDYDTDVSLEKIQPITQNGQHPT
Protocol: as §1, §2, §3

[4] = target: T4, D4 (Homo sapiens, UniProt P21917); experiment: Binding to dopaminergic receptors in cell cultures, displacement of [3H]-spiperone, D4; details: CHO or NM9D cell membranes; [3H]-spiperone 0.2 nM; non specific (+)-butaclamol 1 μM; Cheng and Prusoff; read-out: Receptor binding (Ki nM) D4
T4 construct: expressed in transfected cells; host or cells: CHO or murine mesencephalic neuronal NM9D (sic)
T4 sequence (P21917 1-419): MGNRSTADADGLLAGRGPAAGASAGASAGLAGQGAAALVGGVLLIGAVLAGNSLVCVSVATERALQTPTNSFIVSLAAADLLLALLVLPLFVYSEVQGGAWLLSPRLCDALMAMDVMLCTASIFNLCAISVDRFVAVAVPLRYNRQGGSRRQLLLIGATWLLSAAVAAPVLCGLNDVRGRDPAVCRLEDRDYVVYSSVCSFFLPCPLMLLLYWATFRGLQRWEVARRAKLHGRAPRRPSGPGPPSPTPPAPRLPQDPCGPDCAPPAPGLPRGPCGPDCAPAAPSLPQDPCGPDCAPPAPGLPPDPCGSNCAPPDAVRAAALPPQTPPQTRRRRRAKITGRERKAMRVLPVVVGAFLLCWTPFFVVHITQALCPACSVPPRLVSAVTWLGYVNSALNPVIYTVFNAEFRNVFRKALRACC
Protocol: as §1, §2, §3

[5] = target: T5, D5 (Homo sapiens, UniProt P21918); experiment: Binding to dopaminergic receptors in cell cultures, displacement of [3H]-SCH23390, D5; details: CHO or NM9D cell membranes; [3H]-SCH23390 0.2 nM; non specific (-)cis-flupenthixol 1 μM; Cheng and Prusoff; read-out: Receptor binding (Ki nM) D5
T5 construct: expressed in transfected cells; host or cells: CHO or murine mesencephalic neuronal NM9D (sic)
T5 sequence (P21918 whole entry): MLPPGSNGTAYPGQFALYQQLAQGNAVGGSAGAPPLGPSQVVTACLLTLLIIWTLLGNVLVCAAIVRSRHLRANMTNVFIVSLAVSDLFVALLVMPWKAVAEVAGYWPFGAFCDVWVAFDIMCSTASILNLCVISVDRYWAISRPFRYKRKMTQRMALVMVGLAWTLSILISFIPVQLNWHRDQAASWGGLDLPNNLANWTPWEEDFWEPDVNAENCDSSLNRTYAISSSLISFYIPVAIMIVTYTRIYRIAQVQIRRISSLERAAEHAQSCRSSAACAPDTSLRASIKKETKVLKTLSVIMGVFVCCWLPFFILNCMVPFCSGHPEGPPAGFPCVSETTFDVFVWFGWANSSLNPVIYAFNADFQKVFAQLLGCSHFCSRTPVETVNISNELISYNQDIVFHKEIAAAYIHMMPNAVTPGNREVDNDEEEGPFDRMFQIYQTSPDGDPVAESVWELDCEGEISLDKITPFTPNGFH
Protocol: as §1, §2, §3

Ki [1]: 92 nM
Ki [2]: 9440 nM
Ki [3]: > 10000 nM
Ki [4]: > 10000 nM
Ki [5]: 9270 nM
Compound: CCCN(CCCCCCNCCc1ccc(S(C)(=O)=O)cc1)[C@H]1CCc2c(ccc3sc(=O)[nH]c23)C1 [Compound 2, (S)-6-N-propyl-N-6-[2-(4-methylsulfonylphenyl)ethylamino]hexylamino-4,5,6,7-tetrahydronaphtho(1,2-d)thiazol-2(3H)-one dihydrochloride]
